Data as given in the supplement of paper PMC11061612.

Columns and labels:
[1] = system: PCI-30 (Head and Neck Carcinoma); assay: combination Emax (second highest fraction inhibited in the dose matrix, 72 h); higher = more inhibition; extreme values may be limits of the assay
Summary of the method: (§1)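 Cell lines grown in DMEM/F12 or RPMI with 10% FBS were plated in 1536-well plates and held 24 hours at 37°C, 5% CO2 before 72 hours of exposure to two-drug dose matrices, with DMSO typically at 0.2%. CellTiter-Glo 2.0 luminescence gave viability, which was converted to inhibition. Vehicle wells were set to 0 and blank wells to 1. Combination Emax is the second-highest inhibition in the matrix, and Bliss excess is the observed combination effect minus the expected EA + EB − EA·EB, where EA and EB are the single-agent effects.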

[2] = system: EN (Endometrial Carcinoma); assay: as above
Summary of the method: as §1

[3] = system: RT-112 (Bladder Carcinoma); assay: as above
Summary of the method: as §1

[4] = system: SUP-T1 (T-Lymphoblastic Leukemia); assay: as above
Summary of the method: as §1

[5] = system: SW1116 (Colorectal Carcinoma); assay: as above
Summary of the method: as §1

[6] = system: LoVo (Colorectal Carcinoma); assay: as above
Summary of the method: as §1

[7] = system: HARA (Squamous Cell Lung Carcinoma); assay: as above
Summary of the method: as §1

[8] = system: Hs-633T (Other Solid Carcinomas); assay: as above
Summary of the method: as §1

[9] = system: NCI-H69 (Small Cell Lung Carcinoma); assay: as above
Summary of the method: as §1

[10] = system: NCI-H2461 (Mesothelioma); assay: as above
Summary of the method: as §1

[11] = system: SU-DHL-6 (B-Cell Non-Hodgkin's Lymphoma); assay: Bliss excess, mean over the matrix (fraction); higher = more synergy
Summary of the method: as §1

[12] = system: LoVo (Colorectal Carcinoma); assay: as above
Summary of the method: as §1

[13] = system: Mewo (Melanoma); assay: as above
Summary of the method: as §1

[14] = system: CAL-54 (Kidney Carcinoma); assay: as above
Summary of the method: as §1

[15] = system: RPMI-6666 (Non-Cancerous); assay: as above
Summary of the method: as §1

[16] = system: SH-4 (Melanoma); assay: as above
Summary of the method: as §1

[17] = system: SW1271 (Small Cell Lung Carcinoma); assay: as above
Summary of the method: as §1

[18] = system: MDA-MB-468 (Breast Carcinoma); assay: as above
Summary of the method: as §1

[19] = system: K5 (Thyroid Gland Carcinoma); assay: as above
Summary of the method: as §1

[20] = system: NCI-H2795 (Mesothelioma); assay: as above
Summary of the method: as §1
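Wherever Bliss excess, mean over the matrix is given: after 72 h of two-drug dosing.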

With `N#Cc1cnc(Nc2cc(NC[C@H]3CNCCO3)c(C(F)(F)F)cn2)cn1` [SRA737] + C=CCn1c(=O)c2cnc(Nc3ccc(N4CCN(C)CC4)cc3)nc2n1-c1cccc(C(C)(C)O)n1 [AZD1775] (first compound max 10 µM, partner max 1 µM) the “combination Emax” value [1] was 0.687, the “combination Emax” value [2] was 0.696 and the “combination Emax” value [3] was 0.954. For the same compound, the “combination Emax” value [4] was 0.766, the “combination Emax” value [5] was 0.405 and the “combination Emax” value [6] was 0.852. For the same compound, the “combination Emax” value [7] was 0.983, the “combination Emax” value [8] was 0.79 and the “combination Emax” value [9] was 0.756. For the same compound, the “combination Emax” value [10] was 0.709, the Bliss excess [11] was 0.131 and the Bliss excess [12] was 0.0837. For the same compound, the Bliss excess [13] was -0.0149, the Bliss excess [14] was 0.0005 and the Bliss excess [15] was -0.0021. It also gave a Bliss excess [16] of 0.0688, a Bliss excess [17] of -0.0045 and a Bliss excess [18] of 0.0705. It also gave a Bliss excess [19] of -0.0051 and a Bliss excess [20] of 0.0401.
`N#Cc1cnc(Nc2cc(NC[C@H]3CNCCO3)c(C(F)(F)F)cn2)cn1` [SRA737] + O=c1[nH]cc(F)c(=O)[nH]1 [5-Fluorouracil] (first compound max 10 µM, 7x7, partner max 20 µM) was tested, and the “combination Emax” value [1] was 0.226, the “combination Emax” value [2] was 0.483 and the “combination Emax” value [3] was 0.712. The “combination Emax” value [4] was 0.662, the “combination Emax” value [5] was 0.193 and the “combination Emax” value [6] was 0.652. For the same compound, the “combination Emax” value [7] was 0.89, the “combination Emax” value [8] was 0.413 and the “combination Emax” value [9] was 0.152. The “combination Emax” value [10] was 0.526, the Bliss excess [11] was 0.0498 and the Bliss excess [12] was 0.0238. For the same compound, the Bliss excess [13] was -0.0136, the Bliss excess [14] was -0.0373 and the Bliss excess [15] was -0.003. The Bliss excess [16] was -0.0344, the Bliss excess [17] was -0.0472 and the Bliss excess [18] was -0.0199. For the same compound, the Bliss excess [19] was -0.0459 and the Bliss excess [20] was 0.0744.
In the case of `CC1(C)CCC(CN2CCN(c3ccc(C(=O)NS(=O)(=O)c4ccc(NCC5CCOCC5)c([N+](=O)[O-])c4)c(Oc4cnc5[nH]ccc5c4)c3)CC2)=C(c2ccc(Cl)cc2)C1` [Venetoclax] + CS(=O)(=O)CCNCc1ccc(-c2ccc3ncnc(Nc4ccc(OCc5cccc(F)c5)c(Cl)c4)c3c2)o1 [Lapatinib] (first compound max 1 µM, 7x7, partner max 10 µM), the “combination Emax” value [1] is reported as 0.167, the “combination Emax” value [2] is reported as 0.288 and the “combination Emax” value [3] is reported as 0.146. The “combination Emax” value [4] was 0.484, the “combination Emax” value [5] was 0.288 and the “combination Emax” value [6] was 0.486. For the same compound, the “combination Emax” value [7] was 0.584, the “combination Emax” value [8] was 0.213 and the “combination Emax” value [9] was 0.724. The “combination Emax” value [10] was 0.268, the Bliss excess [11] was 0.0481 and the Bliss excess [12] was -0.0768. It also gave a Bliss excess [13] of -0.0949, a Bliss excess [14] of -0.0788 and a Bliss excess [15] of 0.0423. It also gave a Bliss excess [16] of -0.0489, a Bliss excess [17] of -0.0239 and a Bliss excess [18] of -0.141. For the same compound, the Bliss excess [19] was -0.0404 and the Bliss excess [20] was -0.058.
In the case of `Cc1c2c(nn1C)CSCc1cc(n(C)n1)CSc1cc(c3ccccc3c1)OCCCc1c(C(=O)O)n(C)c3c-2c(Cl)ccc13` [AZD5991] + Nc1ccn([C@@H]2O[C@H](CO)[C@@H](O)C2(F)F)c(=O)n1 [Gemcitabine] (first compound max 1 µM, 7x7, partner max 0.3 µM), the “combination Emax” value [1] is reported as 0.559, the “combination Emax” value [2] is reported as 0.602 and the “combination Emax” value [3] is reported as 0.834. The “combination Emax” value [4] was 0.77, the “combination Emax” value [5] was 0.203 and the “combination Emax” value [6] was 0.713. The “combination Emax” value [7] was 0.81, the “combination Emax” value [8] was 0.837 and the “combination Emax” value [9] was 0.457. For the same compound, the “combination Emax” value [10] was 0.553, the Bliss excess [11] was 0.0242 and the Bliss excess [12] was -0.0693. For the same compound, the Bliss excess [13] was -0.0395, the Bliss excess [15] was -0.0411 and the Bliss excess [16] was -0.0246. It also gave a Bliss excess [17] of -0.0354, a Bliss excess [18] of -0.0097 and a Bliss excess [19] of -0.045. It also gave a Bliss excess [20] of -0.0687.
In the case of `C[C@@H](Oc1cc(-c2cnn(C3CCNCC3)c2)cnc1N)c1c(Cl)ccc(F)c1Cl` [Crizotinib] + CC1=C(C(=CC=C1)Cl)NC(=O)C2=CN=C(S2)NC3=CC(=NC(=N3)C)N4CCN(CC4)CCO [Dasatinib] (first compound max 10 µM, 7x7, partner max 2 µM), the “combination Emax” value [1] is reported as 0.721, the “combination Emax” value [2] is reported as 0.389 and the “combination Emax” value [3] is reported as 0.974. The “combination Emax” value [4] was 0.837, the “combination Emax” value [5] was 0.619 and the “combination Emax” value [6] was 0.505. For the same compound, the “combination Emax” value [7] was 0.757, the “combination Emax” value [8] was 1 and the “combination Emax” value [9] was 0.771. For the same compound, the “combination Emax” value [10] was 0.594, the Bliss excess [11] was -0.0146 and the Bliss excess [12] was -0.121. For the same compound, the Bliss excess [13] was -0.0156, the Bliss excess [14] was -0.033 and the Bliss excess [15] was 0.0471. The Bliss excess [16] was -0.0674, the Bliss excess [17] was 0.0464 and the Bliss excess [18] was 0.0256. For the same compound, the Bliss excess [19] was -0.0107 and the Bliss excess [20] was 0.0277.
In the case of `C[C@@H](Nc1cc(F)cc(F)c1)c1cc(C(=O)N(C)C)cc2c(=O)cc(N3CCOCC3)oc12` [AZD8186] + CC(=O)c1c(C)c2cnc(Nc3ccc(N4CCNCC4)cn3)nc2n(C2CCCC2)c1=O [Palbociclib] (first compound max 10 µM, 7x7, partner max 10 µM), the “combination Emax” value [1] is reported as 0.353, the “combination Emax” value [2] is reported as 0.387 and the “combination Emax” value [3] is reported as 0.352. For the same compound, the “combination Emax” value [4] was 0.651, the “combination Emax” value [5] was 0.175 and the “combination Emax” value [6] was 0.736. The “combination Emax” value [7] was 0.589, the “combination Emax” value [8] was 0.586 and the “combination Emax” value [9] was 0.558. For the same compound, the “combination Emax” value [10] was 0.447, the Bliss excess [11] was 0.0418 and the Bliss excess [12] was -0.0314. It also gave a Bliss excess [13] of -0.0155, a Bliss excess [14] of 0.0039 and a Bliss excess [15] of -0.0073. The Bliss excess [16] was -0.0303, the Bliss excess [17] was 0.0035 and the Bliss excess [18] was -0.022. The Bliss excess [19] was -0.0142 and the Bliss excess [20] was 0.0582.
For `N#Cc1cnc(Nc2cc(NC[C@H]3CNCCO3)c(C(F)(F)F)cn2)cn1` [SRA737] + Nc1ccn([C@@H]2O[C@H](CO)[C@@H](O)C2(F)F)c(=O)n1 [Gemcitabine] (first compound max 10 µM, 7x7, partner max 0.3 µM), the “combination Emax” value [1] was 0.736, the “combination Emax” value [2] was 0.634 and the “combination Emax” value [3] was 0.899. For the same compound, the “combination Emax” value [4] was 0.806, the “combination Emax” value [5] was 0.649 and the “combination Emax” value [6] was 0.789. For the same compound, the “combination Emax” value [7] was 0.902, the “combination Emax” value [8] was 0.916 and the “combination Emax” value [9] was 0.778. The “combination Emax” value [10] was 0.683, the Bliss excess [11] was 0.101 and the Bliss excess [12] was -0.0137. It also gave a Bliss excess [13] of -0.0047, a Bliss excess [14] of -0.0458 and a Bliss excess [15] of -0.0487. It also gave a Bliss excess [16] of 0.0138, a Bliss excess [17] of 0.0198 and a Bliss excess [18] of 0.0293. It also gave a Bliss excess [19] of 0.0428 and a Bliss excess [20] of -0.0258.
